# Data from US6335451B1, “Five-membered heterocycles having biphenylsulfonyl substitution, with sulfonylcyanamide side chain, compositions containing them, and methods of using them” (Hoechst Aktiengesellschaft, priority 1997, dated 2002).
# What was measured:
# [1] = test system: Na+-dependent Cl−/HCO3− exchanger (NCBE); test: Inhibition of the Na+-dependent Cl−/HCO3− exchanger (NCBE) in human endothelial cells (pHi recovery, BCECF fluorescence, FLIPR); format: cell-based; settings: inhibitor concentration of 10 μM; human endothelial cells (ECV-304); relative to 100% and 0% pHi recovery controls, 50 μM HOE 642 present
# Procedure: Inhibition of the Na^+-dependent Cl^−/HCO3^− exchanger (NCBE) in human endothelial cells
# Human endothelial cells (ECV-304) were detached from culture bottles with the aid of trypsin/EDTA buffer (0.05/0.02% in phosphate buffer) and, after centrifugation (100 g, 5 min), taken up in a buffered salt solution (mmol/l: 115 NaCl, 20 NH4Cl, 5 KCl, 1 CaCl2, 1 MgSO4, 20 N-(2-hydroxyethyl)piperazine-N′-2-ethanesulfonic acid (HEPES), 5 glucose and 1 g/l of bovine serum albumin; pH 7.4). This cell suspension was incubated at 37° C. for 20 min with 5 μM BCECF-acetoxymethyl ester. The cells were then washed and resuspended in a sodium- and bicarbonate-free buffer solution (mmol/l: 5 HEPES, 133.8 choline chloride, 4.7 KCl, 1.25 MgCl2, 0.97 K2HPO4, 0.23 KH2PO4, 5 glucose; pH 7.4).
# For subsequent fluorescence measurement in an FLIPR (Fluorescent Imaging Plate Reader) 100 μl of this cell suspension having 20,000 cells in each case were pipetted per well into a 96-well microtiter plate and this microtiter plate was centrifuged (100 g, 5 min).
# In the FLIPR, 100 μl of buffer solution in each case were then removed from a further pretreated microtiter plate and pipetted into each of the 96 wells of the measurement plate. A bicarbonate- and sodium-containing buffer solution (mmol/l: 5 HEPES, 93.8 NaCl, 40 NaHCO3, 4.7 KCl, 1.25 CaCl2, 1.25 MgCl2, 0.97 Na2HPO4, 0.23 NaH2PO4, 5 glucose; pH 7.4) which contained 50 μM HOE 642 was used for a 100% control, i.e. a recovery of the intracellular pH (pHi) via the NCBE. For a 0% control, i.e. no pHi recovery at all, the bicarbonate-free, sodium-containing buffer solution (mmol/l: 5 HEPES, 133.8 NaCl, 4.7 KCl, 1.25 CaCl2, 1.25 MgCl2, 0.97 Na2HPO4, 0.23 NaH2PO4, 5 glucose; pH 7.4) was employed, to which 50 μM HOE 642 were likewise added. The compounds according to the invention were added to the sodium- and bicarbonate-containing solution in various concentrations.
# After addition of the buffer solutions to the dye-loaded, acidified cells in the measurement plate, the rise in the fluorescence intensity which corresponded to a rise in the pHi in each well of the microtiter plate was determined. The kinetics were in this case recorded at 35° C. for a period of 2 minutes.
# The increase in the fluorescence intensities for different concentrations of the compounds according to the invention was related to the two controls and from this inhibitory action of the substances was determined.
# Residual Activity of the NCBE at an Inhibitor Concentration of 10 μM
SMILES,melting point,Residual activity in % (residual activity of the NCBE) [1]
"CCCCc1nc(OC)c(C#N)n1Cc1ccc(-c2ccccc2S(=O)(=O)NC#N)cc1 [Example 14, 4′-(2-Butyl-5-cyano-4-methoxyimidazol-1-ylmethyl)biphenyl-2-sulfonylcyanamide]",160 °C (dec.),47.3%
"CCCCc1nc(Cl)c(C=O)n1Cc1ccc(-c2ccccc2S(=O)(=O)NC#N)cc1 [Example 15, 4′-(2-Butyl-4-chloro-5-formylimidazol-1-ylmethyl)biphenyl-2-sulfonylcyanamide]",135 °C (dec.),55.7%
"CCCCc1nc(SC)c(C(=O)OCC)n1Cc1ccc(-c2cc(S(=O)(=O)NC#N)ccc2C)cc1 [Example 21, Ethyl 2-butyl-3-(2′-methyl-5′-cyanoaminosulfonylbiphenyl-4-yl-methyl)-5-methylsulfanyl-3H-imidazole-4-carboxylate]",127 °C (dec.),42.6%
"CCCCc1nc(SC)c(C(=O)OCC)n1Cc1ccc(-c2ccc(S(=O)(=O)NC#N)cc2C)cc1 [Example 22, Ethyl 2-butyl-3-(2′-methyl-4′-cyanoaminosulfonylbiphenyl-4-yl-methyl)-5-methylsulfanyl-3H-imidazole-4-carboxylate]",211 °C,34.2%
"CCCCc1nc(SC)c(C(=O)OCC)n1Cc1cccc(-c2cc(S(=O)(=O)NC#N)ccc2C)c1 [Example 24, Ethyl 2-butyl-3-(2′-methyl-5′-cyanoaminosulfonylbiphenyl-3-yl-methyl)-5-methylsulfanyl-3H-imidazole-4-carboxylate]",160 °C (dec.),29.2%
"CCCCc1nc(SC)c(C(=O)OCC)n1Cc1cccc(-c2ccc(S(=O)(=O)NC#N)cc2C)c1 [Example 25, Ethyl 2-butyl-3-(2′-methyl-4′-cyanoaminosulfonylbiphenyl-3-yl-methyl)-5-methylsulfanyl-3H-imidazole-4-carboxylate]",115 °C (dec.),70.8%
"CCCCc1nc(SC)c(C(=O)OCC)n1Cc1cccc(-c2ccc(S(=O)(=O)NC#N)cc2C(F)(F)F)c1 [Example 26, Ethyl 2-butyl-5-methylsulfanyl-3-(4′-cyanoaminosulfonyl-2′-trifluoromethylbiphenyl-3-ylmethyl)-3H-imidazole-4-carboxylate]",122 °C (dec.),65.3%
"N#CNS(=O)(=O)c1ccccc1-c1ccc(Cn2c(-c3ccc(Cl)cc3)nc(Cl)c2C=O)cc1 [Example 36, 4′-[4-Chloro-5-formyl-2-(4-chlorphenyl)-imidazole-1-ylmethyl]-biphenyl-2-sulfonylcyanamide]",160 to 187 °C,7.8%
"COc1ccc(-c2nc(Cl)c(C=O)n2Cc2ccc(-c3ccccc3S(=O)(=O)NC#N)cc2)cc1 [Example 37, 4′-[4-Chloro-5-formyl-2-(4-methoxyphenyl)-imidazole-1-ylmethyl]-biphenyl-2-sulfonylcyanamide]",110 to 126 °C,16.8%
"N#CNS(=O)(=O)c1ccccc1-c1ccc(Cn2c(-c3c(F)cccc3F)nc(Cl)c2C=O)cc1 [Example 38, 4′-[4-Chloro-5-formyl-2-(2,6-difluorphenyl)-imidazole-1-ylmethyl]-biphenyl-2-sulfonylcyanamide]",164 to 178 °C,8.6%

# The next lines start with results.
melting point,SMILES,Residual activity in % (residual activity of the NCBE) [1]
165 °C (dec.),CCCc1nc(SC)c(C(=O)OCC)n1Cc1ccc(-c2ccccc2S(=O)(=O)NC#N)cc1 [Example 16],11.5%
94 °C (dec.),"CCOC(=O)c1c(SC)nc(CC)n1Cc1ccc(-c2ccccc2S(=O)(=O)NC#N)cc1 [Example 17, Ethyl 2-ethyl-5-methylsulfanyl-3-(2′-cyanoaminosulfonylbiphenyl-4-ylmethyl)-3H-imidazole-4-carboxylate]",39.1%
169 °C (dec.),"CCOC(=O)c1c(SC)nc(C)n1Cc1ccc(-c2ccccc2S(=O)(=O)NC#N)cc1 [Example 18, Ethyl 2-methyl-5-methylsulfanyl-3-(2′-cyanoaminosulfonylbiphenyl-4-ylmethyl)-3H-imidazole-4-carboxylate]",45.8%
276 °C (dec.),"CCOC(=O)c1c(SC)nc(C(C)C)n1Cc1ccc(-c2ccccc2S(=O)(=O)NC#N)cc1 [Example 19, Ethyl 2-isopropyl-5-methylsulfanyl-3-(2′-cyanoaminosulfonylbiphenyl-4-ylmethyl)-3H-imidazole-4-carboxylate]",21.5%
113 °C (dec.),"CCCCc1nc(SC)c(C(=O)OC(C)C)n1Cc1ccc(-c2ccccc2S(=O)(=O)NC#N)cc1 [Example 20, Isopropyl 2-butyl-5-methylsulfanyl-3-(2′-cyanoaminosulfonylbiphenyl-4-ylmethyl)-3H-imidazole-4-carboxylate]",19.5%
